pEC50: −log10 of the molar value.

Sequence of GLP-1 Receptor (P43220 24-463, species assumed): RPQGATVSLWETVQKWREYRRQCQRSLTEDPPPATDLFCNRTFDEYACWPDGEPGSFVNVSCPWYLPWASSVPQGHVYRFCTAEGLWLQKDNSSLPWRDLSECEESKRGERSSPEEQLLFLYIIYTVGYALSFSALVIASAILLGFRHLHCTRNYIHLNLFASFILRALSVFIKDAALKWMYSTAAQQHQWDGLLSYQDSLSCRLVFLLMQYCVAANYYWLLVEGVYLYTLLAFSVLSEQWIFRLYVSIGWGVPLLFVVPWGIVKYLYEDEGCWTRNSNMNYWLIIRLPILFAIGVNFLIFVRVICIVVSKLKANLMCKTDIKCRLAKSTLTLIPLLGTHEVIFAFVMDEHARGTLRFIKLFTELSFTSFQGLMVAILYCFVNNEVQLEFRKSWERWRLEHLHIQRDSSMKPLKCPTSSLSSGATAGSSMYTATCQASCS

In this experiment the target is GLP-1 Receptor (Homo sapiens, UniProt P43220). Briefly: GLP-1R agonist cAMP stimulation assay (HEK293/GLP1R/CRE-LUC cells, cAMP dynamic 2 Kit). In kind it is cell-based. Conditions: HEK293/CRE-Luc cell line stably expressing the GLP-1 Receptor, 30 min at 37° C. In outline:
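HEK293 cells stably expressing human GLP-1R with CRE-luciferase, 1000 cells/well in DPBS with 0.5 mM IBMX and 0.1% BSA, treated with compound in 1/2-log serial dilution for 30 min at 37 °C. cAMP then detected by HTRF (cAMP-d2 plus anti-cAMP cryptate), 1 h at room temperature in the dark.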
Regarding `C[C@H]1CN(c2ccc(F)c(OCc3ccc(Cl)cc3F)c2)CCN1Cc1nc2cc(-c3nnc(C(F)(F)F)[nH]3)nnc2n1C[C@@H]1CCO1` [Compound 518a, (2S)-4-{3-[(4-chloro-2-fluorophenyl)methoxy]-4-fluorophenyl}-2-methyl-1-[(7-{[(2S)-oxetan-2-yl]methyl}-3-[5-(trifluoromethyl)-4H-1,2,4-triazol-3-yl]-7H-imidazo[4,5-c]pyridazin-6-yl)methyl]piperazine], the pEC50 was 9.39.

Regarding `Fc1cc(Cl)ccc1COc1nc(C2CCN(Cc3nc4cc(-c5nnc(C(F)(F)F)[nH]5)nnc4n3C[C@@H]3CCO3)CC2)ccc1F` [Compound 488a, 2-[(4-chloro-2-fluorophenyl)methoxy]-3-fluoro-6-{1-[(7-{[(2S)-oxetan-2-yl]methyl}-3-[5-(trifluoromethyl)-4H-1,2,4-triazol-3-yl]-7H-imidazo[4,5-c]pyridazin-6-yl)methyl]piperidin-4-yl}pyridine], the negative-log EC50 (pEC50) was 10.27.

Compound `Cc1cnccc1C(=O)Nc1ccc2c(c1)nc(CN1CCC(c3cccc(OCc4ccc(Cl)cc4F)n3)CC1)n2C[C@@H]1CCO1` [Compound 178a, N-{2-[(4-{6-[(4-chloro-2-fluorophenyl)methoxy]pyridin-2-yl}piperidin-1-yl)methyl]-1-{[(2S)-oxetan-2-yl]methyl}-1H-1,3-benzodiazol-5-yl}-3-methylpyridine-4-carboxamide] showed a negative logarithm of the EC50 (pEC50) of 9.24.

The compound `Fc1cc(Cl)ccc1COc1nc(C2CCN(Cc3nc4cc(-c5nnc(C(F)(F)F)[nH]5)ncc4n3C[C@@H]3CCO3)CC2F)ccc1F` (stereo partly drawn) [Compound 515a, 2-[(4-chloro-2-fluorophenyl)methoxy]-3-fluoro-6-[(3,4-trans)-3-fluoro-1-[(3-{[(2S)-oxetan-2-yl]methyl}-6-[5-(trifluoromethyl)-4H-1,2,4-triazol-3-yl]-3H-imidazo[4,5-c]pyridin-2-yl)methyl]piperidin-4-yl]pyridine] had a pEC50 of 10.24.

`CC1(c2ccc(Cl)cc2F)Oc2cccc(C3CCN(Cc4nc5cc(-c6noc(=O)[nH]6)ccc5n4C[C@@H]4CCO4)CC3)c2O1` (single isomer, unassigned) [Compound 239b] had a pEC50 of 10.40.

Compound `CC1(c2ccc(Cl)cc2F)Oc2cccc(C3CCN(Cc4nc5cc(-c6noc(=O)[nH]6)cnc5n4C[C@H]4CCCO4)CC3)c2O1` (stereo partly drawn) [Compound 399a, 3-[2-({4-[2-(4-chloro-2-fluorophenyl)-2-methyl-2H-1,3-benzodioxol-4-yl]piperidin-1-yl}methyl)-3-{[(2R)-oxolan-2-yl]methyl}-3H-imidazo[4,5-b]pyridin-6-yl]-4,5-dihydro-1,2,4-oxadiazol-5-one] gave a pEC50 of 7.77.

Turning to `Cc1nnc(-c2ccc3c(c2)nc(CN2CCC(c4cccc5c4OC(C)(c4ccc(Cl)cn4)O5)CC2)n3CC2(C#N)CC2)[nH]1` (stereo not shown) [Compound 414, 1-{[2-({4-[2-(5-chloropyridin-2-yl)-2-methyl-2H-1,3-benzodioxol-4-yl]piperidin-1-yl}methyl)-5-(5-methyl-4H-1,2,4-triazol-3-yl)-1H-1,3-benzodiazol-1-yl]methyl}cyclopropane-1-carbonitrile], the negative-log EC50 (pEC50) is 10.26.

In turn, `Fc1cc(Cl)ccc1COc1ccc(F)c(N2CCN(Cc3nc4cc(-c5nnc(C(F)(F)F)[nH]5)ncc4n3C[C@@H]3CCO3)CC2)n1` [Compound 501a, 1-{6-[(4-chloro-2-fluorophenyl)methoxy]-3-fluoropyridin-2-yl}-4-[(3-{[(2S)-oxetan-2-yl]methyl}-6-[5-(trifluoromethyl)-4H-1,2,4-triazol-3-yl]-3H-imidazo[4,5-c]pyridin-2-yl)methyl]piperazine] showed a pEC50 of 10.42. The pEC50 values of the last two compounds are within 0.2 log units of each other.

The compound `C[C@]1(c2ccc(Cl)cn2)Oc2cccc(C3CCN(Cc4nc5cc(-c6nnc(C(F)(F)F)[nH]6)nnc5n4C[C@H]4CCOC4)CC3)c2O1` [Compound 474a, 5-chloro-2-[(2S)-2-methyl-4-{1-[(7-{[(3R)-oxolan-3-yl]methyl}-3-[5-(trifluoromethyl)-4H-1,2,4-triazol-3-yl]-7H-imidazo[4,5-c]pyridazin-6-yl)methyl]piperidin-4-yl}-2H-1,3-benzodioxol-2-yl]pyridine] showed a negative logarithm of the EC50 (pEC50) of 8.82.

For the compound `CC1(c2ccc(Cl)cc2F)Oc2cccc(C3CCN(Cc4nc5cc(-c6noc(=O)[nH]6)ccc5n4C[C@@H]4CCO4)CC3)c2O1` (single isomer, unassigned) [Compound 239c], the negative-log EC50 (pEC50) was 9.26.

`CC1(c2ccc(Cl)cc2F)Oc2cccc(C3CCN(Cc4nc5cc(-c6nnc(C(F)(F)F)[nH]6)cnc5n4C[C@@H]4CCO4)CC3)c2O1` (single isomer, unassigned) [Compound 224b] gave a pEC50 of 8.77. Against the preceding compound, the pEC50 is 0.49 log units lower.

`CO[C@@H](C)Cn1c(CN2CCC(c3cccc4c3O[C@@](C)(c3ccc(Cl)cc3F)O4)CC2)nc2cc(-c3noc(=O)[nH]3)ncc21` [Compound 421a, 3-[2-({4-[(2S)-2-(4-chloro-2-fluorophenyl)-2-methyl-2H-1,3-benzodioxol-4-yl]piperidin-1-yl}methyl)-3-[(2S)-2-methoxypropyl]-3H-imidazo[4,5-c]pyridin-6-yl]-4,5-dihydro-1,2,4-oxadiazol-5-one] had a pEC50 of 9.47.

In turn, `O=C1CCCN1c1ccc2c(c1)nc(CN1CCC(c3cccc(OCc4ccc(Cl)cc4F)n3)CC1)n2C[C@@H]1CCO1` [Compound 119a, 1-{2-[(4-{6-[(4-chloro-2-fluorophenyl)methoxy]pyridin-2-yl}piperidin-1-yl)methyl]-1-{[(2S)-oxetan-2-yl]methyl}-1H-1,3-benzodiazol-5-yl}pyrrolidin-2-one] showed a negative logarithm of the EC50 (pEC50) of 8.14. This pEC50 lies 1.33 log units lower than the previous one.

`Fc1cc(Cl)ccc1C1COc2cccc(C3CCN(Cc4nc5cc(-c6nnc(C(F)(F)F)[nH]6)ncc5n4C[C@@H]4CCO4)CC3)c2O1` (stereo partly drawn) [Compound 457a, 4-[3-(4-chloro-2-fluorophenyl)-2,3-dihydro-1,4-benzodioxin-5-yl]-1-[(3-{[(2S)-oxetan-2-yl]methyl}-6-[5-(trifluoromethyl)-4H-1,2,4-triazol-3-yl]-3H-imidazo[4,5-c]pyridin-2-yl)methyl]piperidine] had a pEC50 of 9.92.

The compound `C[C@H]1CN(c2ncc(F)c(OCc3ccc(Cl)cc3F)n2)CCN1Cc1nc2cc(-c3nnc(C(F)(F)F)[nH]3)cnc2n1C[C@@H]1CCO1` [Compound 527a, 4-[(4-chloro-2-fluorophenyl)methoxy]-5-fluoro-2-[(3S)-3-methyl-4-[(3-{[(2S)-oxetan-2-yl]methyl}-6-[5-(trifluoromethyl)-4H-1,2,4-triazol-3-yl]-3H-imidazo[4,5-b]pyridin-2-yl)methyl]piperazin-1-yl]pyrimidine] gave a negative logarithm of the EC50 (pEC50) of 10.48.

Compound `Fc1cc(Cl)ccc1COc1nc(C2CCN(Cc3nc4cc(-c5nnc(C(F)(F)F)[nH]5)nnc4n3C[C@@H]3CCO3)CC2)ncc1F` [Compound 510a, 4-[(4-chloro-2-fluorophenyl)methoxy]-5-fluoro-2-{1-[(7-{[(2S)-oxetan-2-yl]methyl}-3-[5-(trifluoromethyl)-4H-1,2,4-triazol-3-yl]-7H-imidazo[4,5-c]pyridazin-6-yl)methyl]piperidin-4-yl}pyrimidine] had a negative logarithm of the EC50 (pEC50) of 9.80.

The compound `N#Cc1nnc(-c2cc3nc(CN4CCC(c5cccc(OCc6ccc(Cl)cc6F)n5)CC4)n(C[C@@H]4CCO4)c3nn2)[nH]1` [Compound 526a, 5-{6-[(4-{6-[(4-chloro-2-fluorophenyl)methoxy]pyridin-2-yl}piperidin-1-yl)methyl]-7-{[(2S)-oxetan-2-yl]methyl}-7H-imidazo[4,5-c]pyridazin-3-yl}-4H-1,2,4-triazole-3-carbonitrile] gave a pEC50 of 10.77. This pEC50 is 0.97 log units higher than that of the compound before.

Consider `CC1(c2ccc(Cl)cc2F)Oc2cccc(C3CCN(Cc4nc5cc(-c6cn(CCC(=O)O)nn6)ccc5n4C[C@@H]4CCO4)CC3)c2O1` (stereo partly drawn) [Compound 251a, 3-{4-[2-({4-[2-(4-chloro-2-fluorophenyl)-2-methyl-2H-1,3-benzodioxol-4-yl]piperidin-1-yl}methyl)-1-{[(2S)-oxetan-2-yl]methyl}-1H-1,3-benzodiazol-5-yl]-1H-1,2,3-triazol-1-yl}propanoic acid], for which the pEC50 was 9.96.

In turn, `Cc1nnc(-c2cc3nc(CN4CCC(c5cccc6c5O[C@@](C)(c5ccc(Cl)cc5F)O6)CC4)n(C[C@@H]4CCO4)c3cn2)[nH]1` [Compound 289a, 4-[(2S)-2-(4-chloro-2-fluorophenyl)-2-methyl-2H-1,3-benzodioxol-4-yl]-1-{[6-(5-methyl-4H-1,2,4-triazol-3-yl)-3-{[(2S)-oxetan-2-yl]methyl}-3H-imidazo[4,5-c]pyridin-2-yl]methyl}piperidine] showed a pEC50 of 11.29.

On to `CNC(=O)Nc1ccc2c(c1)nc(CN1CCC(c3cccc(OCc4ccc(Cl)cc4F)n3)CC1)n2C[C@@H]1CCO1` [Compound 145a, 1-{2-[(4-{6-[(4-chloro-2-fluorophenyl)methoxy]pyridin-2-yl}piperidin-1-yl)methyl]-1-{[(2S)-oxetan-2-yl]methyl}-1H-1,3-benzodiazol-5-yl}-3-methylurea], for which the pEC50 is 9.80.

`N#Cc1ccc(COc2cccc(N3CCN(Cc4nc5cc(-c6nnc(C(F)(F)F)[nH]6)cnc5n4C[C@@H]4CCO4)CC3)n2)c(F)c1` [Compound 495a, 3-fluoro-4-{[(6-{4-[(3-{[(2S)-oxetan-2-yl]methyl}-6-[5-(trifluoromethyl)-4H-1,2,4-triazol-3-yl]-3H-imidazo[4,5-b]pyridin-2-yl)methyl]piperazin-1-yl}pyridin-2-yl)oxy]methyl}benzonitrile] had a pEC50 of 11.08.

`CC1(c2ccc(Cl)cn2)Oc2c(F)ccc(C3CCN(Cc4nc5cc(-c6nnc(C(F)(F)F)[nH]6)nnc5n4C[C@@H]4CCO4)CC3)c2O1` (stereo partly drawn) [Compound 524a, 5-chloro-2-[4-fluoro-2-methyl-7-{1-[(7-{[(2S)-oxetan-2-yl]methyl}-3-[5-(trifluoromethyl)-4H-1,2,4-triazol-3-yl]-7H-imidazo[4,5-c]pyridazin-6-yl)methyl]piperidin-4-yl}-2H-1,3-benzodioxol-2-yl]pyridine] gave a pEC50 of 9.35.

For orientation: pEC50 means −log10 of the EC50, conventionally taken in molar units. Read a low pEC50 as a large EC50.

The values above are taken from patent publication US20230391760A1, “HETEROCYCLIC GLP-1 AGONISTS” (Gasherbrum Bio, Inc., priority 2020, published 2023).
